Data taken from article PMC8696980, “Isolation, semi-synthesis, docking-based prediction, and bioassay-based activity of Dolichandrone spathacea iridoids: new catalpol derivatives as glucosidase inhibitors” (RSC Advances, 2021).
Like-named read-outs stand apart in the source and are kept apart here.

Molecular target: T1, α-glucosidase (Saccharomyces cerevisiae, UniProt P53341)
T1 construct: purchased Sigma-Aldrich G0660
Test: biochemical
Type: biochemical
Details: 37 °C, 30 minutes, pH 6.8
Protocol: All analytically graded reagents were purchased from either Sigma-Aldrich or Merck & Co. and used without further purification. Solvents for column chromatography were distilled before use. Melting points (in °C) were determined on a Thermo Mel-temp 3.0 (USA). Infrared (IR) spectra were recorded on an IMPACT 410 Nicolet Spectrometer. ESI-MS spectra were obtained from an 1100 Agilent LC/MS ion Trap. 1D (^1H, ^13C and DEPT) and 2D (HSQC, HMBC, COSY, NOESY) NMR spectra were recorded on a Bruker Avance 500 MHz using tetramethylsilane (TMS) as the internal standard for ^1H and solvent signal for ^13C NMR. Thin-layer chromatography (TLC) was carried out on a pre-coated silica gel 60 F254 (Merck & Co.), visualised under ultraviolet (UV) radiation at λmax 254 nm, and stained by a solution of 1% (w/w) vanillin in sulfuric acid. Column chromatography (CC) was performed on silica gel 300–400 mesh (Merck & Co.). Enzyme α-glucosidase was purchased from Sigma-Aldrich under the name code G0660, detected by a Biotek Epoch 2 microplate readers (USA).
Each assay was performed on 96 well-plates (200 μL per well). The test samples were dissolved in DMSO 10% and further diluted to the concentrations: 1024, 256, 64, 16, 4, 1 μg.mL^−1. Each concentration of the test sample (10 μL) was incubated at 37 °C with phosphate buffer 100 mM (pH 6.8, 40 μL), α-glucosidase 0.4 U mL^−1 (25 μL), p-nitrophenyl α-D-glucopyranoside 2.5 mM (25 μL). After 30 minutes, the reaction was terminated by adding 100 μL of 0.1 M Na2CO3 solution. The enzyme activities were determined by measuring the absorbance at λmax 410 nm. […] Percentage of inhibition was calculated as followed:[31] [drawing 1]

[1] = IC50 (α-glucosidase inhibitory activity)

T1 sequence (P53341 whole entry): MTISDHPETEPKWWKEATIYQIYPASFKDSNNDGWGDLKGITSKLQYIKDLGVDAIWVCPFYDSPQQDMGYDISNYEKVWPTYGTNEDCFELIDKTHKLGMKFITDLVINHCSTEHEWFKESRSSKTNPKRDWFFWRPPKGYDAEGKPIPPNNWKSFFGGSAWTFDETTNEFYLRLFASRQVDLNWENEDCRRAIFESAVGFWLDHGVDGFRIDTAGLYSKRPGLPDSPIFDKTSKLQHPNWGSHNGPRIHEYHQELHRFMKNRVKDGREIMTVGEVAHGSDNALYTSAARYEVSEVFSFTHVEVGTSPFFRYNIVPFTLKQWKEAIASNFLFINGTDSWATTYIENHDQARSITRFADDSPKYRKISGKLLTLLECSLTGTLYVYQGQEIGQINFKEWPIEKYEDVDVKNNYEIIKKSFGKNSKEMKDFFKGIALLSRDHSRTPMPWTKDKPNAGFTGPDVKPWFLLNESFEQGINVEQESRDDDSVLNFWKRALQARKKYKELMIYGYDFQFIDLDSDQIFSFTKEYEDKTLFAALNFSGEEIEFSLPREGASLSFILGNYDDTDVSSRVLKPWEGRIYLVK

COc1ccc(C=CC(=O)OC2C3C=COC(OC4OC(CO)C(O)C(O)C4O)C3C3(CO)OC23)cc1 (stereo not shown) [Compound 1, 6-O-[(E)-4-methoxycinnamoyl]catalpol]
IC50 [1]: 24.9 µM

COc1ccc(C=CC(=O)OC2C3C=COC(OC4OC(CO)C(O)C(O)C4O)C3C3(CO)OC23)cc1OC (stereo not shown) [Compound 2, 6-O-[(E)-3,4-dimethoxycinnamoyl]catalpol]
IC50 [1]: 7.24 µM

COc1ccc(CCC(=O)OC2C3C=COC(OC4OC(CO)C(O)C(O)C4O)C3C3(CO)OC23)cc1 (stereo not shown) [Compound 3, 6-O-(4-methoxyphenylpropanoyl)catalpol]
IC50 (α-glucosidase inhibitory activity): inactive | IC50 [1]: > 390 µM

COc1ccc(CCC(=O)OC2C3C=COC(OC4OC(CO)C(O)C(O)C4O)C3C3(CO)OC23)cc1OC (stereo not shown) [Compound 4, 6-O-(3,4-dimethoxyphenylpropanoyl)catalpol]
IC50 (α-glucosidase inhibitory activity): inactive | IC50 [1]: > 390 µM

COc1ccc(CCC(=O)OC2C3C=COC(OC4OC(COC(C)=O)C(OC(C)=O)C(OC(C)=O)C4OC(C)=O)C3C3(COC(C)=O)OC23)cc1OC (stereo not shown) [Compound 5, 6-O-(3,4-dimethoxyphenylpropanoyl)catalpolpentaacetate]
IC50 (α-glucosidase inhibitory activity): inactive | IC50 [1]: > 390 µM

COc1ccc(C=CC(=O)OC2C3C=COC(OC4OC(COC(c5ccccc5)(c5ccccc5)c5ccccc5)C(O)C(O)C4O)C3C3(COC(c4ccccc4)(c4ccccc4)c4ccccc4)OC23)cc1OC (stereo not shown) [Compound 6, 6-O-[(E)-3,4-dimethoxy]catalpol-10,6′-O-ditriphenylmethyl]
IC50 [1]: 225 µM

COc1ccc(C=CC(=O)OC2C3C=COC(OC4OC(COC(C)=O)C(OC(C)=O)C(OC(C)=O)C4OC(C)=O)C3C3(COC(C)=O)OC23)cc1 (stereo not shown) [Compound 7, minecoside pentaacetate]
IC50 [1]: 168 µM

COc1ccc(C=CC(=O)OC2C3C=COC(OC4OC(COC(C)=O)C(OC(C)=O)C(OC(C)=O)C4OC(C)=O)C3C3(COC(C)=O)OC23)cc1OC (stereo not shown) [Compound 8, 6-O-[(E)-3,4-dimethoxycinnamoyl]catalpolpentaacetate]
IC50 (α-glucosidase inhibitory activity): inactive | IC50 [1]: > 390 µM

COc1ccc(C=CC(=O)OC2C3C=COC(OC4OC5COC(C)(C)OC5C(O)C4O)C3C3(CO)OC23)cc1 (stereo not shown) [Compound 9, 6-O-[(E)-4-methoxycinnamoyl]catalpol-4′,6′-acetonide]
IC50 [1]: > 390 µM

CC(=CCO)CCC=C(C)C(=O)OC1C2C=COC(OC3OC(CO)C(O)C(O)C3O)C2C2(CO)OC12 (stereo not shown) [Compound 10, nemoroside]
IC50 [1]: 0.05 µM

COc1ccc(C=CC(=O)OC2C3C=COC(OC4OC(COC(C)=O)C(OC(C)=O)C(OC(C)=O)C4OC(C)=O)C3C3(COC(C)=O)OC23)cc1OC(C)=O (stereo not shown) [Compound 11, 6-O-[(E)-4-methoxycinnamoyl]catalpolhexaacetate]
IC50 (α-glucosidase inhibitory activity): inactive | IC50 [1]: > 390 µM

CC(=O)OCC1OC(OC2OC=CC3C(OC(=O)C=Cc4ccc(OC(C)=O)cc4)C4OC4(COC(C)=O)C23)C(OC(C)=O)C(OC(C)=O)C1OC(C)=O (stereo not shown) [Compound 12, specioside hexaacetate]
IC50 [1]: 71.6 µM

COc1ccc(/C=C/C(=O)O[C@H]2[C@@H]3C=CO[C@@H](O[C@@H]4O[C@H](CO)[C@@H](O)[C@H](O)[C@H]4O)[C@@H]3[C@@]3(CO)O[C@@H]23)cc1O [Compound 13, minecoside]
IC50 [1]: 20.8 µM

O=C(/C=C/c1ccc(O)cc1)O[C@H]1[C@@H]2C=CO[C@@H](O[C@@H]3O[C@H](CO)[C@@H](O)[C@H](O)[C@H]3O)[C@@H]2[C@@]2(CO)O[C@@H]12 [Compound 14, specioside]
IC50 (read-out: IC50 (α-glucosidase inhibitory activity)): 8.65 µM
